Reference: patent US8975417B2, “Pyrazolopyrrolidine derivatives and their use in the treatment of disease” (Novartis AG, priority 2013, dated 2015)

Tests used:
His-Brd2(60-472) = His-Brd2(60-472) (Homo sapiens (Human), UniProt P25440); assay: TR-FRET in-vitro binding assay for BRD2; settings: biochemical
Outline: (§1)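 His-tagged BRD2(60-472), BRD3(20-477) or BRD4(44-477), 45 nM in dispensing solution, with 60 nM tetra-acetylated histone H4 peptide (AcK5/8/12/16) in dispensing solution; HEPES pH 7.5, 50 mM NaCl, 0.1% BSA, 30 °C, 35 min. Eu-anti-His6 antibody plus streptavidin-APC added for TR-FRET read-out; 8-point compound dilutions.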

His-Brd3(20-477) = His-Brd3(20-477) (Homo sapiens (Human), UniProt Q15059); assay: TR-FRET in-vitro binding assay for BRD3; settings: biochemical
Sequence of His-Brd3(20-477) (Q15059 20-477): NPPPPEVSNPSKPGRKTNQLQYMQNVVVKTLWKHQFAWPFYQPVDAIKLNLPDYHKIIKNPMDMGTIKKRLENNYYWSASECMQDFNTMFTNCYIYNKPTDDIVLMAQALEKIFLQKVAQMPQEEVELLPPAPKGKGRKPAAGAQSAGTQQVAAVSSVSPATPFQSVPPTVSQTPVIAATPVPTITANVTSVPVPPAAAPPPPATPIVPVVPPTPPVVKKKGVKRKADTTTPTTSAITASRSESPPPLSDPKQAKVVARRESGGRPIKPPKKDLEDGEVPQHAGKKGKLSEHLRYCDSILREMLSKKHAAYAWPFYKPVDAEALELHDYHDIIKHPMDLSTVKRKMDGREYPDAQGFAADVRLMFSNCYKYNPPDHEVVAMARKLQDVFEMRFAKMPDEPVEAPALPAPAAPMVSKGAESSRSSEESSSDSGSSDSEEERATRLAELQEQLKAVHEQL
Outline: as §1

THP-1 cells = assay: Cell growth inhibition assay (CellTiter-Glo), THP-1; format: cell-based; settings: Homo sapiens, read-out: THP-1 TGI
Outline: (§2)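 CTG luminescence (cellular ATP) after compound treatment; values background- and day 0-corrected, vehicle (0.1% DMSO) = 100%, medium only = −100%. Dose range: 3-fold dilutions from 10 μM. IC50/TGI by 4-parameter fit.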

K-562 cells = assay: Cell growth inhibition assay (CellTiter-Glo), K-562; format: cell-based, human; settings: Homo sapiens, K562, read-out: K-562 TGI
Outline: as §2

Sequence of His-Brd2(60-472) (P25440 60-472): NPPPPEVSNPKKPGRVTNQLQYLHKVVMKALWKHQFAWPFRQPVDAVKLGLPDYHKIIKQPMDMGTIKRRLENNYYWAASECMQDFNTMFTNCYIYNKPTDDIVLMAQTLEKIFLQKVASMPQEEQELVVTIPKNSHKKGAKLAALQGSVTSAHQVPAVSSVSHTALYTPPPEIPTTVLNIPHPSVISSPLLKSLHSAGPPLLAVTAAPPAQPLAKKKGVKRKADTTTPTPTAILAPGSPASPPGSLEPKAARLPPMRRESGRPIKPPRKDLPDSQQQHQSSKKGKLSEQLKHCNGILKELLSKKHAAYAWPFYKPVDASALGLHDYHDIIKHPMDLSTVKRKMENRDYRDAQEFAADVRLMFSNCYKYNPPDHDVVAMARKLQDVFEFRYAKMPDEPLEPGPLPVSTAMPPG

| IC50 (His-Brd2(60-472)) [µM] | IC50 (His-Brd3(20-477)) [µM] | SMILES | IC (total growth inhibition) (THP-1 cells) [µM] | IC (total growth inhibition) (K-562 cells) [µM] |
| --- | --- | --- | --- | --- |
| 0.032 | 0.024 | COc1ncccc1-n1nc(C)c2c1C(=O)N(c1cc(C)c3nnc(C)n3n1)C2c1ccc(Cl)cc1 (stereo not drawn) [Example 111, 4-(4-chlorophenyl)-5-(3,8-dimethyl-[1,2,4]triazolo[4,3-b]pyridazin-6-yl)-1-(2-methoxypyridin-3-yl)-3-methyl-4,5-dihydropyrrolo[3,4-c]pyrazol-6(1H)-one] | 0.0484 | > 10 |
| > 37 | > 37 | Cc1nn(C2CC2)c2c1C(c1ccc(Cl)cc1)N(c1cc(N(C)C(=O)OC(C)(C)C)c3nnc(C)n3n1)C2=O (stereo not drawn) [Example 112, tert-butyl (6-(4-(4-chlorophenyl)-1-cyclopropyl-3-methyl-6-oxopyrrolo[3,4-c]pyrazol-5(1H,4H,6H)-yl)-3-methyl-[1,2,4]triazolo[4,3-b]pyridazin-8-yl)(methyl)carbamate] | 3.17 | > 10 |
| 0.035 | 0.037 | Cc1nn(-c2ccnn2C)c2c1C(c1ccc(Cl)cc1)N(c1cc(C)c3nnc(C)n3n1)C2=O (stereo not drawn) [Example 114, 4-(4-chlorophenyl)-5-(3,8-dimethyl-[1,2,4]triazolo[4,3-b]pyridazin-6-yl)-3-methyl-1-(1-methyl-1H-pyrazol-5-yl)-4,5-dihydropyrrolo[3,4-c]pyrazol-6(1H)-one] | 0.0765 | > 10 |
| 0.048 | 0.046 | CCn1nc2c(c1C)C(c1ccc(Cl)cc1)N(c1cc(C)c3nnc(C)n3c1)C2=O (stereo not drawn) [Example 115, 4-(4-chlorophenyl)-5-(3,8-dimethyl-[1,2,4]triazolo[4,3-a]pyridin-6-yl)-2-ethyl-3-methyl-4,5-dihydropyrrolo[3,4-c]pyrazol-6(2H)-one] | 0.0712 | > 10 |
| 0.036 | 0.032 | CCn1nc(C)c2c1C(=O)N(c1cc(C)c3nnc(C)n3c1)C2c1ccc(Cl)cc1 (stereo not drawn) [Example 116, 4-(4-chlorophenyl)-5-(3,8-dimethyl-[1,2,4]triazolo[4,3-a]pyridin-6-yl)-1-ethyl-3-methyl-4,5-dihydropyrrolo[3,4-c]pyrazol-6(1H)-one] | 0.0354 | > 10 |
| 0.034 | 0.038 | Cc1cc(N2C(=O)c3c(c(C4CC4)nn3-c3ccnn3C)C2c2ccc(Cl)cc2)cn2c(C)nnc12 (stereo not drawn) [Example 117, 4-(4-chlorophenyl)-3-cyclopropyl-5-(3,8-dimethyl-[1,2,4]triazolo[4,3-a]pyridin-6-yl)-1-(1-methyl-1H-pyrazol-5-yl)-4,5-dihydropyrrolo[3,4-c]pyrazol-6(1H)-one] | 0.0671 | > 10 |
| 0.078 | 0.083 | Cc1nn(-c2ccnn2C)c2c1[C@@H](c1ccc(Cl)cc1)N(c1cc(C)c(=O)n(C)c1)C2=O [Example 120, (R)-4-(4-chlorophenyl)-5-(1,5-dimethyl-6-oxo-1,6-dihydropyridin-3-yl)-3-methyl-1-(1-methyl-1H-pyrazol-5-yl)-4,5-dihydropyrrolo[3,4-c]pyrazol-6(1H)-one] | 0.165 | > 10 |
| 5.3 | 5.4 | Cc1nn(-c2ccnn2C)c2c1[C@H](c1ccc(Cl)cc1)N(c1cc(C)c(=O)n(C)c1)C2=O [Example 121, (S)-4-(4-chlorophenyl)-5-(1,5-dimethyl-6-oxo-1,6-dihydropyridin-3-yl)-3-methyl-1-(1-methyl-1H-pyrazol-5-yl)-4,5-dihydropyrrolo[3,4-c]pyrazol-6(1H)-one] | 5.03 | > 10 |
| 4.4 | 5.1 | COc1ncccc1-n1nc(C)c2c1C(=O)N(c1cc(C)c(=O)n(C)c1)[C@H]2c1ccc(Cl)cc1 [Example 127, (S)-4-(4-chlorophenyl)-5-(1,5-dimethyl-6-oxo-1,6-dihydropyridin-3-yl)-1-(2-methoxypyridin-3-yl)-3-methyl-4,5-dihydropyrrolo[3,4-c]pyrazol-6(1H)-one] | > 10 | > 10 |
| 0.03 | 0.037 | COc1ncccc1-n1nc(C)c2c1C(=O)N(c1cc(C)c(=O)n(C)c1)[C@@H]2c1ccc(Cl)cc1 [Example 128, (R)-4-(4-chlorophenyl)-5-(1,5-dimethyl-6-oxo-1,6-dihydropyridin-3-yl)-1-(2-methoxypyridin-3-yl)-3-methyl-4,5-dihydropyrrolo[3,4-c]pyrazol-6(1H)-one] | 0.107 | > 10 |
| 0.046 | 0.052 | Cc1cc(N2C(=O)c3c(c(CO)nn3C3CC3)C2c2ccc(Cl)cc2)cn2c(C)nnc12 (stereo not drawn) [Example 131, 4-(4-chlorophenyl)-1-cyclopropyl-5-(3,8-dimethyl-[1,2,4]triazolo[4,3-a]pyridin-6-yl)-3-(hydroxymethyl)-4,5-dihydropyrrolo[3,4-c]pyrazol-6(1H)-one] | 0.119 | > 10 |
| 0.15 | 0.13 | Cc1nn(C2COC2)c2c1C(c1ccc(Cl)cc1)N(c1cc(C)c(=O)n(C)c1)C2=O (stereo not drawn) [Example 135, 4-(4-chlorophenyl)-5-(1,5-dimethyl-6-oxo-1,6-dihydropyridin-3-yl)-3-methyl-1-(oxetan-3-yl)-4,5-dihydropyrrolo[3,4-c]pyrazol-6(1H)-one] | 0.2 | > 10 |
| 0.14 | 0.13 | Cc1cc(N2C(=O)c3nn(C4COC4)c(C)c3C2c2ccc(Cl)cc2)cn2c(C)nnc12 (stereo not drawn) [Example 136, 4-(4-chlorophenyl)-5-(3,8-dimethyl-[1,2,4]triazolo[4,3-a]pyridin-6-yl)-3-methyl-2-(oxetan-3-yl)-4,5-dihydropyrrolo[3,4-c]pyrazol-6(2H)-one] | 0.186 | > 10 |
| 0.092 | 0.1 | Cc1nn(C2COC2)c2c1C(c1ccc(Cl)cc1)N(c1cc(C)c3nnc(C)n3c1)C2=O (stereo not drawn) [Example 137, 4-(4-chlorophenyl)-5-(3,8-dimethyl-[1,2,4]triazolo[4,3-a]pyridin-6-yl)-3-methyl-1-(oxetan-3-yl)-4,5-dihydropyrrolo[3,4-c]pyrazol-6(1H)-one] | 0.116 | > 10 |
| 0.18 | 0.13 | Cc1cc(N2C(=O)c3nn(C(=O)N(C)C)c(C)c3C2c2ccc(Cl)cc2)cn(C)c1=O (stereo not drawn) [Example 141, 4-(4-chlorophenyl)-5-(1,5-dimethyl-6-oxo-1,6-dihydropyridin-3-yl)-N,N,3-trimethyl-6-oxo-5,6-dihydropyrrolo[3,4-c]pyrazole-2(4H)-carboxamide] | 0.527 | > 10 |
| 0.33 | 0.27 | CNC(=O)n1nc(C)c2c1C(=O)N(c1cc(C)c(=O)n(C)c1)C2c1ccc(Cl)cc1 (stereo not drawn) [Example 143, 4-(4-chlorophenyl)-5-(1,5-dimethyl-6-oxo-1,6-dihydropyridin-3-yl)-N,3-dimethyl-6-oxo-5,6-dihydropyrrolo[3,4-c]pyrazole-1(4H)-carboxamide] | 0.621 | > 10 |
| 0.18 | 0.19 | CNC(=O)n1nc(C)c2c1C(=O)N(c1cc(C)c3nnc(C)n3c1)C2c1ccc(Cl)cc1 (stereo not drawn) [Example 145, 4-(4-chlorophenyl)-5-(3,8-dimethyl-[1,2,4]triazolo[4,3-a]pyridin-6-yl)-N,3-dimethyl-6-oxo-5,6-dihydropyrrolo[3,4-c]pyrazole-1(4H)-carboxamide] | 0.335 | > 10 |

| SMILES | IC50 (His-Brd2(60-472)) [µM] | IC50 (His-Brd3(20-477)) [µM] | IC (total growth inhibition) (THP-1 cells) [µM] | IC (total growth inhibition) (K-562 cells) [µM] |
| --- | --- | --- | --- | --- |
| Cc1nn(-c2ccnn2C)c2c1[C@H](c1ccc(Cl)cc1)N(c1cc(C)c3nnc(C)n3c1)C2=O [Example 124, (S)-4-(4-chlorophenyl)-5-(3,8-dimethyl-[1,2,4]triazolo[4,3-a]pyridin-6-yl)-3-methyl-1-(1-methyl-1H-pyrazol-5-yl)-4,5-dihydropyrrolo[3,4-c]pyrazol-6(1H)-one] | 29 | 37 | 1.54 | > 10 |
| Cc1nn(-c2ccnn2C)c2c1[C@@H](c1ccc(Cl)cc1)N(c1cc(C)c3nnc(C)n3c1)C2=O [Example 125, (R)-4-(4-chlorophenyl)-5-(3,8-dimethyl-[1,2,4]triazolo[4,3-a]pyridin-6-yl)-3-methyl-1-(1-methyl-1H-pyrazol-5-yl)-4,5-dihydropyrrolo[3,4-c]pyrazol-6(1H)-one] | 0.032 | 0.032 | 0.0473 | > 10 |
| Cc1nn(C2CN(C)C2)c2c1C(c1ccc(Cl)cc1)N(c1cc(C)c(=O)n(C)c1)C2=O (stereo not drawn) [Example 140, 4-(4-chlorophenyl)-5-(1,5-dimethyl-6-oxo-1,6-dihydropyridin-3-yl)-3-methyl-1-(1-methylazetidin-3-yl)-4,5-dihydropyrrolo[3,4-c]pyrazol-6(1H)-one] | 0.42 | 0.44 | 0.925 | > 10 |
| Cc1nn(C(=O)N(C)C)c2c1C(c1ccc(Cl)cc1)N(c1cc(C)c(=O)n(C)c1)C2=O (stereo not drawn) [Example 142, 4-(4-chlorophenyl)-5-(1,5-dimethyl-6-oxo-1,6-dihydropyridin-3-yl)-N,N,3-trimethyl-6-oxo-5,6-dihydropyrrolo[3,4-c]pyrazole-1(4H)-carboxamide] | 0.18 | 0.15 | 0.448 | > 10 |
